{"source": "patent US20090004694A1", "about": "“Sequence of Thermotolerant L-Rhamnose Isomerase Gene and Use of the Same” (National University Corporation Kagawa University, priority 2004, published 2009)", "molecules": {"B1": {"name": "L-rhamnose isomerase derived from Bacillus pallidus: thermotolerant L-rhamnose isomerase derived from Bacillus pallidus strain 14a (FERM AP-20172), amino acid sequence SEQ ID NO: 2 (protein, listed as Bacillus pallidus)", "chain": "MVIKESFEIARQVYEKWGINIEEVLENLQQASISIHCWQGDDVKGFEADASELSGGIDVTGNYPGKARNAEELRQDLEKALSLIPGKHRVNLHAIYAETNGEKVERDQLEPKHFENWVNWAKKIGIGLDFNPTLFSHEKAADGLTLSHPDPGIREFWINHCIRSRKIGEYFGKELGTPCLTNIWIPDGYKDIPSDRLTPRKRLKESLDKIFSVEINEKYNLDAVESKLFGIGSESFVVGSHEFYLGYALQNNKIYLLDTGHFHPTETVSNKISSILLYSDRLALHVSRPVRWDSDHVVILDDELREIALEIVRNDALHKVLIGLDFFDASINRLAAWVIGTRNMIKALLYAMLMPHEYLKQLQEKGNFTERLAVMEEFKTYPFGAIWDYYCEKMNVPVREEWLKEIQKYEEEVLTKRQ"}, "B2": {"name": "L-rhamnose isomerase produced by Pseudomonas stutzeri LL172: known L-rhamnose isomerase derived from Pseudomonas stutzeri LL172 (FERM BP-08593), amino acid sequence SEQ ID NO: 4 (protein, listed as Pseudomonas stutzeri)", "chain": "MAEFRIAQDVVARENDRRASALKEDYEALGANLARRGVDIEAVTAKVEKFFVAVPSWGVGTGGTRFARFPGTGEPRGIFDKLDDCAVIQQLTRATPNVSLHIPWDKADPKELKARGDALGLGFDAMNSNTFSDAPGQAHSYKYGSLSHTDAATRAQAVEHNLECIEIGKAIGSKALTVWIGDGSNFPGQSNFTRAFERYLSAMAEIYKGLPDDWKLFSEHKMYEPAFYSTVVQDWGTNYLIAQTLGPKAQCLVDLGHHAPNTNIEMIVARLIQFGKLGGFHFNDSKYGDDDLDAGAIEPYRLFLVFNELVDAEARGVKGFHPAHMIDQSHNVTDPIESLINSANEIRRAYAQALLVDRAALSGYQEDNDALMATETLKRAYRTDVEPILAEARRRTGGAVDPVATYRASGYRARVAAERPASVAGGGGII"}}, "key": {"[1]": {"experiment": "Solubility of D-psicose and D-allose in water and alcohols", "type": "physicochemical", "text": "The principle of the collection by separation will be briefly described. […] D-psicose has a solubility of about 10% in methanol and ethanol, however, D-allose is insoluble in either alcohol. The temperature has an influence on the solubility. The solubility of D-psicose in both alcohols is increased at a high temperature. Further, when the alcohol concentration is high, D-allose is likely to be crystallized. It is a separation technique utilizing the above physical properties. It is a production method of high-purity D-allose in which by allowing an alcohol (ethanol and/or ethanol) to act on, D-allose which is insoluble in the alcohol (ethanol and/or ethanol) is crystallized and the crystal of D-allose is separated."}, "[2]": {"target": "T1, L-rhamnose isomerase produced by E. coli (Escherichia coli, UniProt P32170)", "T1 sequence (P32170 1-419)": "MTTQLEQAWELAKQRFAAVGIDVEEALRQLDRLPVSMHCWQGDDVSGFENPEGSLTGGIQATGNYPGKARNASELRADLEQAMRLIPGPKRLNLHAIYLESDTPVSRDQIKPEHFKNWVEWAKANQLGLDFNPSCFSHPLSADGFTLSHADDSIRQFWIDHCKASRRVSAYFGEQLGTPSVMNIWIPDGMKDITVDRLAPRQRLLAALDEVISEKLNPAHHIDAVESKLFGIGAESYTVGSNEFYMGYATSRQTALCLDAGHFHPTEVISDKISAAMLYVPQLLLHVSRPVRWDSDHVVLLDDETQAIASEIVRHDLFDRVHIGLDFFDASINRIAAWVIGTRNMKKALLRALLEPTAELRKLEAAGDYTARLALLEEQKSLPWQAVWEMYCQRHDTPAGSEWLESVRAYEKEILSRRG", "conditions": "cited from earlier work"}, "[3]": {"test_system": "L-rhamnose isomerase derived from Bacillus pallidus strain 14a (IPOD FERM AP-20172)", "experiment": "Substrate specificity (relative activity) of the purified enzyme, cysteine-carbazole method", "type": "biochemical", "conditions": "activity against L-rhamnose assumed to be 100%; 50° C., 10 minutes, glycine-NaOH buffer pH 9.0", "method": "(§1) The method for measuring the substrate specificity (relative activity (%)) will be described.\n(§2) A reaction solution having a composition of 50 μl of the purified enzyme solution, 50 μl of 0.05 M of each substrate sugar, 50 μl of 0.01 M manganese chloride and 0.05 M glycine-NaOH buffer (pH 9.0) was used. The reaction was carried out at a reaction temperature of 50° C. for 10 minutes. The produced ketose corresponding to the respective substrates was measured by the cysteine-carbazole method, and the activity that produces 1 μmol of the ketose per minute was measured for the respective substrates."}, "[4]": {"test_system": "L-rhamnose isomerase produced by Pseudomonas stutzeri LL172 (IPOD FERM BP-08593)", "experiment": "Substrate specificity (relative activity) of the purified enzyme, cysteine-carbazole method", "type": "biochemical", "conditions": "activity against L-rhamnose assumed to be 100%; 50° C., 10 minutes, glycine-NaOH buffer pH 9.0", "method": "as §1, §2"}, "[5]": {"test_system": "L-rhamnose isomerase derived from Bacillus pallidus strain 14a", "experiment": "Effect of metal ion on enzyme activity", "type": "biochemical", "conditions": "1 mM cobalt ion"}, "[6]": {"test_system": "L-rhamnose isomerase produced by Pseudomonas stutzeri LL172", "conditions": "cited from earlier work; for effect of chelating agent on activity: coexisting during the measurement of the activity"}, "[7]": {"experiment": "Optimal pH and working pH of L-rhamnose isomerase", "type": "biochemical", "conditions": "50° C., L-rhamnose as substrate, purified enzyme", "method": "The optimal pH of L-rhamnose isomerase derived from Bacillus pallidus was examined. With the use of the purified enzyme, a reaction was carried out at 50° C. using L-rhamnose as a substrate at each pH value.\nThe optimal pH of L-rhamnose isomerase derived from P. stutzeri was examined. […] With regard to the activity thereof, the optimal pH was present in a range of from pH 7 to around pH 9."}, "[8]": {"experiment": "Optimal and working temperature of L-rhamnose isomerase", "type": "biochemical", "conditions": "reaction time of 10 minutes"}, "[9]": {"experiment": "Temperature stability of L-rhamnose isomerase", "type": "physicochemical", "conditions": "heat treatment condition of 1 hour"}, "[10]": {"conditions": "known properties (Non-patent document 1 / Patent document 1); cited from earlier work"}, "[11]": {"conditions": "reaction time 10 minutes; cited from earlier work"}, "[12]": {"conditions": "cited from earlier work"}}, "note": "Several values for one entry are separate records, joined by “and”; a condition that tells them apart may be missing. Equal values may be shown once. Read-outs that look alike come from different tables or passages of the source.", "data": [{"molecule": "O=C(CO)[C@H](O)[C@H](O)[C@H](O)CO", "note": "[D-psicose]", "values": [{"measurement": "solubility in methanol and ethanol", "setting": "[1]; methanol and ethanol", "value": "about 10%"}, {"measurement": "solubility in water", "setting": "[1]; water", "value": "readily soluble"}, {"measurement": "activity between D-psicose and D-allose", "setting": "[2]", "value": "hardly exhibits an activity"}]}, {"molecule": "C[C@H](O)[C@H](O)[C@@H](O)[C@@H](O)C=O", "note": "[L-rhamnose]", "values": [{"measurement": "Enzyme derived from B. Pallidus (relative activity %)", "setting": "[3]", "value": 100, "unit": "%"}, {"measurement": "Enzyme derived from P stutzeri (relative activity %)", "setting": "[4]", "value": 100, "unit": "%"}]}, {"molecule": "[Co+2]", "note": "[cobalt ion]", "values": [{"measurement": "activity inhibited by metal ion", "setting": "[5]", "value": "About 30%"}, {"measurement": "activity inhibited by metal ion", "setting": "[6]; 1 mM cobalt ion", "value": "About 30%"}]}, {"molecule": "O=C(O)CN(CCN(CC(=O)O)CC(=O)O)CC(=O)O", "note": "[EDTA]", "values": [{"measurement": "effect of chelating agent on activity", "setting": "[6]", "value": "hardly inhibited"}]}, {"molecule": "O=C[C@@H](O)[C@@H](O)[C@H](O)CO", "note": "[D-lyxose]", "values": [{"measurement": "Enzyme derived from B. Pallidus (relative activity %)", "setting": "[3]", "value": 0.14, "unit": "%"}, {"measurement": "Enzyme derived from P stutzeri (relative activity %)", "setting": "[4]", "value": 0.006, "unit": "%"}]}, {"molecule": "O=C(O)CN(CCOCCOCCN(CC(=O)O)CC(=O)O)CC(=O)O", "note": "[EGTA]", "values": [{"measurement": "effect of chelating agent on activity", "setting": "[6]", "value": "hardly inhibited"}]}, {"molecule": "O=C[C@H](O)[C@H](O)[C@H](O)[C@H](O)CO", "note": "[D-allose]", "values": [{"measurement": "Enzyme derived from B. Pallidus (relative activity %)", "setting": "[3]", "value": "5.5% and 5.6%"}, {"measurement": "Enzyme derived from P stutzeri (relative activity %)", "setting": "[4]", "value": 7.2, "unit": "%"}, {"measurement": "solubility in methanol and ethanol", "setting": "[1]", "value": "insoluble"}, {"measurement": "solubility in water", "setting": "[1]", "value": "readily soluble"}, {"measurement": "activity between D-psicose and D-allose", "setting": "[2]", "value": "hardly exhibits an activity"}]}, {"molecule": "O=C[C@H](O)[C@H](O)[C@@H](O)CO", "note": "[L-lyxose]", "values": [{"measurement": "Enzyme derived from B. Pallidus (relative activity %)", "setting": "[3]", "value": 23.9, "unit": "%"}, {"measurement": "Enzyme derived from P stutzeri (relative activity %)", "setting": "[4]", "value": "43.9% and 43.7%"}]}, {"molecule": "O=C[C@H](O)[C@H](O)[C@@H](O)[C@@H](O)CO", "note": "[L-mannose]", "values": [{"measurement": "Enzyme derived from B. Pallidus (relative activity %)", "setting": "[3]", "value": 11, "unit": "%"}, {"measurement": "Enzyme derived from P stutzeri (relative activity %)", "setting": "[4]", "value": 33.4, "unit": "%"}]}, {"molecule": "B1", "values": [{"measurement": "pH at which the highest activity was exhibited", "setting": "[7]", "value": 6}, {"measurement": "optimal temperature (highest enzymatic activity)", "setting": "[8]", "value": 80, "unit": "°C"}, {"measurement": "optimal temperature higher compared with the L-rhamnose isomerase of LL172", "setting": "[8]", "value": 20, "unit": "°C"}, {"measurement": "optimal temperature higher compared with the L-rhamnose isomerase of LL172", "setting": "[8]; listed as thermotolerant L-rhamnose isomerase", "value": "about 20 °C"}, {"measurement": "stable temperature higher compared with the L-rhamnose isomerase of LL172", "setting": "[9]", "value": 10, "unit": "°C"}, {"measurement": "temperature stability (stable up to)", "setting": "[9]", "value": "up to 50 °C"}]}, {"molecule": "B2", "values": [{"measurement": "pH at which the highest activity was exhibited", "setting": "[7]", "value": 9}, {"measurement": "optimal temperature (highest enzymatic activity)", "setting": "[8]", "value": 60, "unit": "°C"}, {"measurement": "temperature stability (stable up to)", "setting": "[9]", "value": 40, "unit": "°C"}, {"measurement": "optimal pH", "setting": "[10]", "value": 9.0}, {"measurement": "temperature of highest activity", "setting": "[11]", "value": 60, "unit": "°C"}, {"measurement": "remaining activity", "setting": "[12]; 50° C. for 10 minutes", "value": "≥ 90", "unit": "%"}, {"measurement": "temperature stability (stable at)", "setting": "[12]; 10 minutes", "value": 40, "unit": "°C"}]}]}
